# Where two headings read alike, the source gives them in different places.
# Experiments:
# Experiment in all cases: In vitro competitive activity-based protein profiling (gel-based, FP-Rh or HT-01 probe)
# Format in all cases: biochemical
# ABHD6 = target: T1, ABHD6 (Mus musculus, UniProt Q8R2Y0); details: for inhibition at 1 µM: 1 μM inhibitor, read-out: % Inhibition at 1 μM, C = ABHD6; for inhibition at 10 µM: 10 μM inhibitor, read-out: % Inhibition at 10 μM, C = ABHD6
# T1 construct: Proteomes (mouse brain membrane fraction or cell lysates); from tissue; host or cells: mouse brain membrane fraction (or cell lysates, not specified)
# T1 sequence (Q8R2Y0 1-336): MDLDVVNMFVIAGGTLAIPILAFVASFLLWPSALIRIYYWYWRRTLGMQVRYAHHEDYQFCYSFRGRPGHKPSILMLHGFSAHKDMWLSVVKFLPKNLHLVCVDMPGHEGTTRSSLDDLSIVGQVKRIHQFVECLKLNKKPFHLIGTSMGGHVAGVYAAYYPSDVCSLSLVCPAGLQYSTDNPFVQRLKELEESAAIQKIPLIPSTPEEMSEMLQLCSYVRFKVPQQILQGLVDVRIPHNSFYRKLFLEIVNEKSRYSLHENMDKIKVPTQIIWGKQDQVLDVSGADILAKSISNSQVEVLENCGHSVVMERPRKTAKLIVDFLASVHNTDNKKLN
# In short: (§1)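 Mouse brain membrane proteome or cell lysate (1.0 mg/mL protein) was preincubated with inhibitor at varying concentrations for 30 min at 37° C, then labelled with FP-Rh or HT-01 for 30 min at 37° C. After SDS-PAGE, residual hydrolase activity was quantified as in-gel fluorescence of each band.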
# FAAH = target: T2, FAAH (Mus musculus, UniProt O08914); details: for inhibition at 1 µM: 1 μM inhibitor, read-out: % Inhibition at 1 μM, B = FAAH; for inhibition at 10 µM: 10 μM inhibitor, read-out: % Inhibition at 10 μM, B = FAAH
# T2 construct: Proteomes (mouse brain membrane fraction or cell lysates); from tissue; host or cells: mouse brain membrane fraction (or cell lysates, not specified)
# T2 sequence (O08914 1-579): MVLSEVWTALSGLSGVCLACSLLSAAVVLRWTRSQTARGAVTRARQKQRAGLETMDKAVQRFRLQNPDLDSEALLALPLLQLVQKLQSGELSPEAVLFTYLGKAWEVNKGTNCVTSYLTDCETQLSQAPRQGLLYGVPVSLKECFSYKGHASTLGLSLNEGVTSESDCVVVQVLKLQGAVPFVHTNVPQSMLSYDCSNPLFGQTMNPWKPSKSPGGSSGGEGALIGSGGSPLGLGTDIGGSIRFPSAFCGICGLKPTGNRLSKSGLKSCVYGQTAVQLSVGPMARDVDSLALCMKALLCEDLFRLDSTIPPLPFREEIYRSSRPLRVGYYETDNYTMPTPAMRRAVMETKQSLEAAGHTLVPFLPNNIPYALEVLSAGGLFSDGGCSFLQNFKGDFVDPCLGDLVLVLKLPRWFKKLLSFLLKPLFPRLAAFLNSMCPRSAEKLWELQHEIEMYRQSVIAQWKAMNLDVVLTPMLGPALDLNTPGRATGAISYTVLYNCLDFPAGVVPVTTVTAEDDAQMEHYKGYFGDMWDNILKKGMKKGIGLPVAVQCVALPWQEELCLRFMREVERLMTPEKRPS
# In short: as §1
# MAGL = target: T3, MAGL (Mus musculus, UniProt O35678); details: for inhibition at 1 µM: 1 μM inhibitor; for inhibition at 10 µM: 10 μM inhibitor
# T3 construct: Proteomes (mouse brain membrane fraction or cell lysates); from tissue; host or cells: mouse brain membrane fraction (or cell lysates, not specified)
# T3 sequence (O35678 1-303): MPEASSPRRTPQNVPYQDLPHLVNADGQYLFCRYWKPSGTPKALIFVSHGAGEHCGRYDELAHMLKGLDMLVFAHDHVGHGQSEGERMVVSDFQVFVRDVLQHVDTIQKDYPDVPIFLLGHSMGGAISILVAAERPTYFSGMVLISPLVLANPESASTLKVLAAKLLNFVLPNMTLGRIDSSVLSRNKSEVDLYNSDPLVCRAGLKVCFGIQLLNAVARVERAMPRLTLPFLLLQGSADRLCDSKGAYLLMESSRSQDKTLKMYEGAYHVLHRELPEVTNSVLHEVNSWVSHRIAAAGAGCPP
# In short: as §1
# PLA2G7 = target: T4, PLA2G7 (Mus musculus, UniProt Q60963); details: for inhibition at 1 µM: 1 μM inhibitor, read-out: % Inhibition at 1 μM, D = PLA2G7; for inhibition at 10 µM: 10 μM inhibitor, read-out: % Inhibition at 10 μM, D = PLA2G7
# T4 construct: Proteomes (mouse brain membrane fraction or cell lysates); from tissue; host or cells: mouse brain membrane fraction (or cell lysates, not specified)
# T4 sequence (Q60963 22-440): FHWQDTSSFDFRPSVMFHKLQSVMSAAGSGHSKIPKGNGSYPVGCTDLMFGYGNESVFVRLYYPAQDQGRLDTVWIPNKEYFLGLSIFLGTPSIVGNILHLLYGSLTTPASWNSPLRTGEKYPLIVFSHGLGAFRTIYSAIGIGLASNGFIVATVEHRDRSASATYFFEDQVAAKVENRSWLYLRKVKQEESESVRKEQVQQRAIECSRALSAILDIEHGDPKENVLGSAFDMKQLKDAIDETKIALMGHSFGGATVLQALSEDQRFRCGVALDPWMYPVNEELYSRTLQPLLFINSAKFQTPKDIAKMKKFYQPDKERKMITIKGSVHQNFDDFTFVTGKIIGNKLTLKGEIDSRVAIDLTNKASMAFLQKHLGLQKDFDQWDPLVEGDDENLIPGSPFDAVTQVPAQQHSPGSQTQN
# In short: as §1
inhibition at 1 µM (ABHD6),inhibition at 10 µM (ABHD6),inhibition at 1 µM (FAAH),inhibition at 10 µM (FAAH),inhibition at 1 µM (MAGL),inhibition at 10 µM (MAGL),inhibition at 1 µM (PLA2G7),inhibition at 10 µM (PLA2G7),inhibition at 1 µM (ABHD6; gel-based competitive ABPP),inhibition at 10 µM (ABHD6; gel-based competitive ABPP),inhibition at 1 µM (FAAH; gel-based competitive ABPP),inhibition at 10 µM (FAAH; gel-based competitive ABPP),inhibition at 1 µM (MAGL; gel-based competitive ABPP),inhibition at 10 µM (MAGL; gel-based competitive ABPP),inhibition at 1 µM (PLA2G7; gel-based competitive ABPP),inhibition at 10 µM (PLA2G7; gel-based competitive ABPP),SMILES
> 75%,> 75%,> 75%,> 75%,> 75%,> 75%,> 75%,> 75%,–,–,–,–,–,–,–,–,"Cc1ccccc1N1CCN(C(=O)n2cc(C(F)(F)F)cn2)CC1 [Example 230, (4-o-Tolylpiperazin-1-yl)(4-(trifluoromethyl)-1H-pyrazol-1-yl)methanone]"
< 25%,25 to 75%,25 to 75%,> 75%,< 25%,< 25%,< 25%,–,–,–,–,–,–,–,–,–,"CN(CCN(C)S(C)(=O)=O)C(=O)n1cc(C#N)cn1 [Example 197, 4-Cyano-N-methyl-N-(2-(N-methylmethylsulfonamido)ethyl)-1H-pyrazole-1-carboxamide]"
< 25%,> 75%,< 25%,25 to 75%,> 75%,> 75%,> 75%,> 75%,–,–,–,–,–,–,–,–,"O=C(c1ccccc1)N1CCN(C(=O)n2cc(C(F)(F)F)cn2)CC1 [Example 153, (4-Benzoylpiperazin-1-yl)(4-(trifluoromethyl)-1H-pyrazol-1-yl)methanone]"
–,–,–,–,–,–,–,–,> 75%,> 75%,> 75%,> 75%,> 75%,> 75%,< 25%,25 to 75%,"O=C(c1cnn(C(=O)N2CCN(Cc3ccc(-c4ccccc4)cc3OCc3ccccc3)CC2)c1)N1CCCC1 [Example 291, (4-((3-(Benzyloxy)biphenyl-4-yl)methyl)piperazin-1-yl)(4-(pyrrolidine-1-carbonyl)-1H-pyrazol-1-yl)methanone]"

# More lines, now with the values behind:
SMILES,inhibition at 1 µM (ABHD6),inhibition at 10 µM (ABHD6),inhibition at 1 µM (FAAH),inhibition at 10 µM (FAAH),inhibition at 1 µM (MAGL),inhibition at 10 µM (MAGL),inhibition at 1 µM (PLA2G7),inhibition at 10 µM (PLA2G7),inhibition at 1 µM (ABHD6; gel-based competitive ABPP),inhibition at 10 µM (ABHD6; gel-based competitive ABPP),inhibition at 1 µM (FAAH; gel-based competitive ABPP),inhibition at 10 µM (FAAH; gel-based competitive ABPP),inhibition at 1 µM (MAGL; gel-based competitive ABPP),inhibition at 10 µM (MAGL; gel-based competitive ABPP),inhibition at 1 µM (PLA2G7; gel-based competitive ABPP),inhibition at 10 µM (PLA2G7; gel-based competitive ABPP)
"CC(C)(C)OC(=O)N1CCCN(C(=O)n2cccn2)CC1 [Example 25, tert-Butyl 4-(1H-pyrazole-1-carbonyl)-1,4-diazepane-1-carboxylate]",< 25%,25 to 75%,< 25%,< 25%,< 25%,< 25%,< 25%,< 25%,–,–,–,–,–,–,–,–
"O=C(N1CCN(Cc2ccncn2)CC1)n1cc(-c2ccccc2)cn1 [Example 62, (4-Phenyl-1H-pyrazol-1-yl)(4-(pyrimidin-4-ylmethyl)piperazin-1-yl)methanone]",> 75%,> 75%,–,> 75%,–,< 25%,> 75%,> 75%,–,–,–,–,–,–,–,–
"O=C(N1CCN(C(c2ccc(Cl)cc2)c2ccc(Cl)cc2)CC1)n1cc(-c2ccc(C(F)(F)F)cc2)cn1 [Example 124, (4-(Bis(4-chlorophenyl)methyl)piperazin-1-yl)(4-(4-(trifluoromethyl)phenyl)-1H-pyrazol-1-yl)methanone]",> 75%,> 75%,–,< 25%,–,25 to 75%,25 to 75%,> 75%,–,–,–,–,–,–,–,–
